According to ChEMBL document CHEMBL5331066, “Structure-guided design of novel HEPT analogs with enhanced potency and safety: From Isopropyl-HEPTs to Cyclopropyl-HEPTs” (Eur J Med Chem, 2023):

Columns and labels:
[1] = tested on: Human immunodeficiency virus 1; test: Antiviral activity against HIV1 harboring L100I mutant infected in human MT4 cells assessed as protection against virus-induced cytopathicity; format: functional, organism-based; conditions: Human immunodeficiency virus 1, MT4
[2] = tested on: Human immunodeficiency virus 1; test: Antiviral activity against wild type HIV1 IIIB infected in human MT4 cells assessed as protection against virus-induced cytopathicity; format: functional, organism-based; conditions: Human immunodeficiency virus 1, IIIB
[3] = Cytotoxicity against human MT4 cells assessed as reduction in cell viability; format: toxicity, cell-based
[4] = Selectivity index, ratio of CC50 for cytotoxicity against human MT4 cells to EC50 for antiviral activity against wild type HIV1 IIIB infected in human MT4 cells; format: toxicity, cell-based; conditions: read-out: Ratio CC50/EC50
[5] = tested on: Human immunodeficiency virus 1; test: Antiviral activity against HIV1 harboring K103 N mutant infected in human MT4 cells assessed as protection against virus-induced cytopathicity; format: functional, organism-based; conditions: Human immunodeficiency virus 1, MT4
[6] = tested on: Human immunodeficiency virus 1; test: Antiviral activity against HIV1 harboring Y181C mutant infected in human MT4 cells assessed as protection against virus-induced cytopathicity; format: functional, organism-based; conditions: Human immunodeficiency virus 1, MT4
[7] = tested on: Human immunodeficiency virus 1; test: Antiviral activity against HIV1 harboring Y188L mutant infected in human MT4 cells assessed as protection against virus-induced cytopathicity; format: functional, organism-based; conditions: Human immunodeficiency virus 1, MT4
[8] = tested on: Human immunodeficiency virus 1; test: Antiviral activity against HIV1 harboring E138K mutant infected in human MT4 cells assessed as protection against virus-induced cytopathicity; format: functional, organism-based; conditions: Human immunodeficiency virus 1, MT4
[9] = molecular target: Human immunodeficiency virus type 1 reverse transcriptase (Human immunodeficiency virus 1, UniProt Q72547); test: Inhibition of wild type HIV-1 reverse transcriptase assessed as inhibition of biotin deoxyuridine triphosphate incorporation into […]

Compound: Cc1cccc(Sc2c(C3CC3)c(=O)[nH]c(=O)n2COCc2ccccc2)c1
- EC50 [1]: 0.17 µM
- EC50 [2]: 0.028 µM
- CC50 [3]: 32.5 µM
- selectivity ratio [4]: 1160
- EC50 [5]: 2.76 µM
- EC50 [6]: 2.56 µM
- EC50 [7]: > 32.5 µM
- EC50 [8]: 0.16 µM

Compound: COc1ccc(OC)c(Sc2c(C3CC3)c(=O)[nH]c(=O)n2COCc2ccccc2)c1
- EC50 [1]: 0.66 µM
- EC50 [2]: 0.22 µM
- CC50 [3]: 33.4 µM
- selectivity ratio [4]: 150
- EC50 [5]: > 33.4 µM
- EC50 [6]: 5.68 µM
- EC50 [7]: > 33.4 µM
- EC50 [8]: 0.99 µM

Compound: O=c1[nH]c(=O)n(COCc2ccccc2)c(Sc2ccc(F)cc2)c1C1CC1
- EC50 [1]: 1.88 µM
- EC50 [2]: 0.75 µM
- CC50 [3]: 38.8 µM
- selectivity ratio [4]: 53
- EC50 [5]: > 40.8 µM
- EC50 [6]: 6.4 µM
- EC50 [7]: > 40.8 µM
- EC50 [8]: 2.03 µM

Compound: COc1ccc(Sc2c(C3CC3)c(=O)[nH]c(=O)n2COCc2ccccc2)cc1
- EC50 [2]: > 44.6 µM
- CC50 [3]: 44.6 µM
- selectivity ratio [4]: < 1

Compound: O=c1[nH]c(=O)n(COCc2ccccc2)c(Sc2ccccc2F)c1C1CC1
- EC50 [1]: 0.45 µM
- EC50 [2]: 0.043 µM
- CC50 [3]: 34.7 µM
- selectivity ratio [4]: 813
- EC50 [5]: 4.99 µM
- EC50 [6]: 4.47 µM
- EC50 [7]: > 34.7 µM
- EC50 [8]: 0.35 µM
- IC50 [9]: 0.06 µM

Compound: COc1cccc(OC)c1Sc1c(C2CC2)c(=O)[nH]c(=O)n1COCc1ccccc1
- EC50 [1]: 144 µM
- EC50 [2]: 6.7 µM
- CC50 [3]: > 284 µM
- selectivity ratio [4]: > 40
- EC50 [5]: > 284 µM
- EC50 [6]: > 284 µM
- EC50 [7]: > 284 µM
- EC50 [8]: > 284 µM

Compound: O=c1[nH]c(=O)n(COCc2ccccc2)c(Sc2cc(F)cc(F)c2)c1C1CC1
- EC50 [1]: 0.43 µM
- EC50 [2]: 0.036 µM
- CC50 [3]: 30 µM
- selectivity ratio [4]: 842
- EC50 [5]: 3.01 µM
- EC50 [6]: 4.27 µM
- EC50 [7]: > 30 µM
- EC50 [8]: 0.19 µM
- IC50 [9]: 0.1 µM

Compound: O=c1[nH]c(=O)n(COCc2ccccc2)c(Sc2cc(Cl)cc(Cl)c2)c1C1CC1
- EC50 [1]: 0.4 µM
- EC50 [2]: 0.073 µM
- CC50 [3]: 28.7 µM
- selectivity ratio [4]: 395
- EC50 [5]: 2.74 µM
- EC50 [6]: 1.71 µM
- EC50 [7]: 7.7 µM
- EC50 [8]: 0.45 µM
- IC50 [9]: 0.11 µM

Compound: O=c1[nH]c(=O)n(COCc2ccccc2)c(Sc2ccc(Cl)cc2Cl)c1C1CC1
- EC50 [1]: 4.43 µM
- EC50 [2]: 5.3 µM
- CC50 [3]: 34 µM
- selectivity ratio [4]: 6
- EC50 [5]: > 30 µM
- EC50 [6]: ≥ 11.1 µM
- EC50 [7]: > 30 µM
- EC50 [8]: > 30 µM
- IC50 [9]: 5.56 µM

Compound: O=c1[nH]c(=O)n(COCc2ccccc2)c(Sc2ccc(Cl)cc2)c1C1CC1
- EC50 [1]: 4.48 µM
- EC50 [2]: 4.46 µM
- CC50 [3]: 30.2 µM
- selectivity ratio [4]: 7
- EC50 [5]: > 30.3 µM
- EC50 [6]: 3.78 µM
- EC50 [7]: > 30.3 µM
- EC50 [8]: > 30.3 µM
- IC50 [9]: 5.78 µM

Compound: O=c1[nH]c(=O)n(COCc2ccccc2)c(Sc2ccccc2)c1C1CC1
- EC50 [1]: 1.23 µM
- EC50 [2]: 0.039 µM
- CC50 [3]: 49.9 µM
- selectivity ratio [4]: 1250
- EC50 [5]: > 30.7 µM
- EC50 [6]: 9.83 µM
- EC50 [7]: > 30.7 µM
- EC50 [8]: 2.79 µM

Compound: O=c1[nH]c(=O)n(COCc2ccccc2)c(Sc2ccc(F)cc2F)c1C1CC1
- EC50 [1]: 3.1 µM
- EC50 [2]: 1.2 µM
- CC50 [3]: 33.5 µM
- selectivity ratio [4]: 28
- EC50 [5]: > 33.5 µM
- EC50 [6]: ≥ 9.44 µM
- EC50 [7]: > 33.5 µM
- EC50 [8]: 8.38 µM
- IC50 [9]: 1.8 µM

Compound: O=c1[nH]c(=O)n(COCc2ccccc2)c(Sc2cccc(F)c2F)c1C1CC1
- EC50 [1]: 0.5 µM
- EC50 [2]: 0.14 µM
- CC50 [3]: 31.4 µM
- selectivity ratio [4]: 224
- EC50 [5]: > 3.84 µM
- EC50 [6]: > 31.4 µM
- EC50 [7]: > 31.4 µM
- EC50 [8]: 0.5 µM
- IC50 [9]: 0.24 µM

Compound: O=c1[nH]c(=O)n(COCc2ccccc2)c(Sc2cccc(F)c2)c1C1CC1
- EC50 [1]: 0.25 µM
- EC50 [2]: 0.025 µM
- CC50 [3]: 38.8 µM
- selectivity ratio [4]: 1520
- EC50 [5]: 2.99 µM
- EC50 [6]: 3.36 µM
- EC50 [7]: > 38.8 µM
- EC50 [8]: 0.13 µM
- IC50 [9]: 0.04 µM

Compound: O=c1[nH]c(=O)n(COCc2ccccc2)c(Sc2c(Cl)cccc2Cl)c1C1CC1
- EC50 [1]: 2.65 µM
- EC50 [2]: 3.14 µM
- CC50 [3]: 22.9 µM
- selectivity ratio [4]: 7
- EC50 [5]: > 22.9 µM
- EC50 [6]: > 22.9 µM
- EC50 [7]: > 22.9 µM
- EC50 [8]: 3.07 µM
- IC50 [9]: 4.23 µM

Compound: O=c1[nH]c(=O)n(COCc2ccccc2)c(Sc2cccc(Cl)c2)c1C1CC1
- EC50 [1]: 0.36 µM
- EC50 [2]: 0.048 µM
- CC50 [3]: 29.7 µM
- selectivity ratio [4]: 613
- EC50 [5]: 3.74 µM
- EC50 [6]: 3.28 µM
- EC50 [7]: > 29.7 µM
- EC50 [8]: 0.19 µM
- IC50 [9]: 0.06 µM

Compound: O=c1[nH]c(=O)n(COCc2ccccc2)c(Sc2ccccc2Cl)c1C1CC1
- EC50 [1]: 0.63 µM
- EC50 [2]: 0.053 µM
- CC50 [3]: 27.3 µM
- selectivity ratio [4]: 515
- EC50 [5]: 9.14 µM
- EC50 [6]: 2.94 µM
- EC50 [7]: > 27.3 µM
- EC50 [8]: 0.43 µM
- IC50 [9]: 0.09 µM

Compound: O=c1[nH]c(=O)n(COCc2ccccc2)c(Sc2c(F)cccc2F)c1C1CC1
- EC50 [1]: 2.01 µM
- EC50 [2]: 0.34 µM
- CC50 [3]: 29 µM
- selectivity ratio [4]: 89
- EC50 [5]: > 29 µM
- EC50 [6]: > 29 µM
- EC50 [7]: > 29 µM
- EC50 [8]: 1.51 µM
- IC50 [9]: 0.72 µM

Compound: COc1ccc(Sc2c(C3CC3)c(=O)[nH]c(=O)n2COCc2ccccc2)c(OC)c1
- EC50 [2]: > 30.9 µM
- CC50 [3]: 30.9 µM
- selectivity ratio [4]: < 1

Compound: CC(C)c1c(Sc2cccc3ccccc23)n(COCc2ccccc2)c(=O)[nH]c1=O
- EC50 [2]: 0.063 µM
- CC50 [3]: 34 µM
- selectivity ratio [4]: 565

Compound: O=c1[nH]c(=O)n(COCc2ccccc2)c(Sc2cc(Cl)ccc2Cl)c1C1CC1
- EC50 [1]: 0.12 µM
- EC50 [2]: 0.029 µM
- CC50 [3]: 33.9 µM
- selectivity ratio [4]: 1140
- EC50 [5]: 1.51 µM
- EC50 [6]: 0.51 µM
- EC50 [7]: 7.92 µM
- EC50 [8]: 0.07 µM
- IC50 [9]: 0.03 µM

Compound: O=c1[nH]c(=O)n(COCc2ccccc2)c(Sc2cccc(Cl)c2Cl)c1C1CC1
- EC50 [1]: 2.34 µM
- EC50 [2]: 0.8 µM
- CC50 [3]: 27.4 µM
- selectivity ratio [4]: 34
- EC50 [5]: > 27.4 µM
- EC50 [6]: > 27.4 µM
- EC50 [7]: > 27.4 µM
- EC50 [8]: 0.67 µM
- IC50 [9]: 1.22 µM

Compound: COc1cc(OC)cc(Sc2c(C3CC3)c(=O)[nH]c(=O)n2COCc2ccccc2)c1
- EC50 [1]: 1.79 µM
- EC50 [2]: 0.77 µM
- CC50 [3]: 29.7 µM
- selectivity ratio [4]: 38
- EC50 [5]: > 29.7 µM
- EC50 [6]: 9.63 µM
- EC50 [7]: > 29.7 µM
- EC50 [8]: 3.07 µM

Compound: O=c1[nH]c(=O)n(COCc2ccccc2)c(Sc2cccc3ccccc23)c1C1CC1
- EC50 [1]: 23.1 µM
- EC50 [2]: 0.84 µM
- CC50 [3]: 30.7 µM
- selectivity ratio [4]: 36
- EC50 [5]: > 177 µM
- EC50 [6]: 24.5 µM
- EC50 [7]: > 177 µM
- EC50 [8]: 31.6 µM

Compound: Cc1c(Sc2ccccc2)n(COCCO)c(=O)[nH]c1=O [HEPT]
- EC50 [2]: 7 µM
- CC50 [3]: 740 µM
- selectivity ratio [4]: 106

Compound: Cc1ccnc2c1NC(=O)c1cccnc1N2C1CC1 [NEVIRAPINE]
- EC50 [1]: 1.28 µM
- EC50 [2]: 0.086 µM
- CC50 [3]: > 9.51 µM
- EC50 [5]: 5.33 µM
- EC50 [6]: 7.04 µM
- EC50 [7]: > 9.51 µM
- EC50 [8]: 0.14 µM

Compound: Cc1cn([C@H]2C[C@H](N=[N+]=[N-])[C@@H](CO)O2)c(=O)[nH]c1=O [ZIDOVUDINE]
- EC50 [1]: 0.016 µM
- EC50 [2]: 0.028 µM
- CC50 [3]: > 7.48 µM
- selectivity ratio [4]: > 309
- EC50 [5]: 0.026 µM
- EC50 [6]: 0.02 µM
- EC50 [7]: 0.029 µM
- IC50 [9]: 2.2 µM
